Results reported in patent US10105357B2, “Indication of antibiotic drugs for preparation of cancer inhibition pharmaceutical composition” (LAUNX BIOMEDICAL CO., LTD., priority 2014, dated 2018).
Like-named read-outs stand apart in the source and are kept apart here.

Tests used:
[1] = system: A375 (Amelanotic Melanoma); experiment: Cell viability analysis, skin cancer A375; type: cell-based, human; settings: Homo sapiens
[2] = system: PC3 (p53−) (Prostate Adenocarcinoma); experiment: Cell viability analysis, prostate cancer PC3; type: cell-based, human; settings: Homo sapiens
[3] = system: HL-60 (Acute Promyelocytic Leukemia); experiment: Cell viability analysis, leukemia HL-60; type: cell-based, human; settings: Homo sapiens
[4] = system: HI650 (Lung Adenocarcinoma); experiment: Cell viability analysis, lung cancer HI650; type: cell-based, human; settings: Homo sapiens
[5] = system: MKN-45 (Gastric Adenocarcinoma); experiment: Cell viability analysis, gastric cancer MKN-45; type: cell-based, human; settings: Homo sapiens
[6] = system: AGS (Gastric Adenocarcinoma); experiment: Cell viability analysis, gastric cancer AGS; type: cell-based, human; settings: Homo sapiens
[7] = system: MCF7 (Mammary Gland, Adenocarcinoma); experiment: Cell viability analysis, breast cancer MCF7; type: cell-based, human; settings: Homo sapiens
[8] = system: HeLa (Cervix Adenocarcinoma); experiment: Cell viability analysis, cervical cancer HeLa; type: cell-based, human; settings: Homo sapiens, HeLa
[9] = system: HepG2 (Hepatocellular Carcinoma); experiment: Cell viability analysis, hepatic cancer HepG2; type: cell-based, human; settings: Homo sapiens
[10] = system: TSGH-8301 (Urinary Bladder Carcinoma); experiment: Cell viability analysis, bladder cancer TSGH-8301; type: cell-based, human; settings: Homo sapiens
[11] = system: A549 (Lung Adenocarcinoma); experiment: Cell viability analysis, lung cancer A549; type: cell-based, human; settings: Homo sapiens
[12] = system: HCT116 (p53+) (Colorectal Carcinoma); experiment: cells; settings: Homo sapiens, HCT-116, 72 h, read-out: cell viability (survival rate), HCT116
[13] = system: LoVo (Colorectal Adenocarcinoma); experiment: Cell viability analysis, colon cancer LoVo; type: cell-based, human; settings: Homo sapiens, LoVo
[14] = 72 h, read-out: cell viability (survival rate), LoVo, drug 10 μM, 72 hours, WST-1, OD450 nm
[15] = A-375, 72 h, drug 10 μM, 72 hours, WST-1, OD450 nm, read-out: cell viability (survival rate), A375
[16] = 72 h, drug 10 μM, 72 hours, WST-1, OD450 nm, read-out: cell viability (survival rate), PC3
[17] = HL-60, 72 h, drug 10 μM, 72 hours, WST-1, OD450 nm, read-out: cell viability (survival rate), HL-60
[18] = NCI-H1650, 72 h, drug 10 μM, 72 hours, WST-1, OD450 nm, read-out: cell viability (survival rate), H1650
[19] = MKN-45, 72 h, drug 10 μM, 72 hours, WST-1, OD450 nm, read-out: cell viability (survival rate), MKN-45
[20] = 72 h, drug 10 μM, 72 hours, WST-1, OD450 nm, read-out: cell viability (survival rate), AGS
[21] = MCF7, 72 h, drug 10 μM, 72 hours, WST-1, OD450 nm, read-out: cell viability (survival rate), MCF7
[22] = 72 h, drug 10 μM, 72 hours, WST-1, OD450 nm, read-out: cell viability (survival rate), HeLa
[23] = HepG2, 72 h, drug 10 μM, 72 hours, WST-1, OD450 nm, read-out: cell viability (survival rate), HepG2
[24] = 72 h, drug 10 μM, 72 hours, WST-1, OD450 nm, read-out: cell viability (survival rate), TSGH
[25] = A549, 72 h, drug 10 μM, 72 hours, WST-1, OD450 nm, read-out: cell viability (survival rate), A549

SMILES | viability at 10 µM [12] | viability at 10 µM [13, 14] | viability at 10 µM [1, 15] | viability at 10 µM [2, 16] | viability at 10 µM [3, 17] | viability at 10 µM [4, 18] | viability at 10 µM [5, 19] | viability at 10 µM [6, 20] | viability at 10 µM [7, 21] | viability at 10 µM [8, 22] | viability at 10 µM [9, 23] | viability at 10 µM [10, 24] | viability at 10 µM [11, 25] | other results
COC(=O)C1=CO[C@@H](O[C@@H]2O[C@H](CO)[C@@H](O)[C@H](O)[C@H]2O)[C@@H]2C(CO)=CC[C@H]12 [Geniposide] | 73.9% | – | – | – | – | – | – | – | – | – | – | – | – | viability at 10 µM ([1]; A-375, drug 10 μM, 72 hours, WST-1, OD450 nm, read-out: cell viability (survival rate), A375): 73.4%; viability at 10 µM ([2]; drug 10 μM, 72 hours, WST-1, OD450 nm, read-out: cell viability (survival rate), PC3): 65.5%; viability at 10 µM ([3]; HL-60, drug 10 μM, 72 hours, WST-1, OD450 nm, read-out: cell viability (survival rate), HL-60): 120%; viability at 10 µM ([4]; NCI-H1650, drug 10 μM, 72 hours, WST-1, OD450 nm, read-out: cell viability (survival rate), H1650): 71.2%; viability at 10 µM ([5]; MKN-45, drug 10 μM, 72 hours, WST-1, OD450 nm, read-out: cell viability (survival rate), MKN-45): 45.6%; viability at 10 µM ([6]; drug 10 μM, 72 hours, WST-1, OD450 nm, read-out: cell viability (survival rate), AGS): 54.2%; viability at 10 µM ([7]; MCF7, drug 10 μM, 72 hours, WST-1, OD450 nm, read-out: cell viability (survival rate), MCF7): 73.8%; viability at 10 µM ([8]; drug 10 μM, 72 hours, WST-1, OD450 nm, read-out: cell viability (survival rate), HeLa): 81%; viability at 10 µM ([9]; HepG2, drug 10 μM, 72 hours, WST-1, OD450 nm, read-out: cell viability (survival rate), HepG2): 88.6%; viability at 10 µM ([10]; drug 10 μM, 72 hours, WST-1, OD450 nm, read-out: cell viability (survival rate), TSGH): 53.1%; viability at 10 µM ([11]; A549, drug 10 μM, 72 hours, WST-1, OD450 nm, read-out: cell viability (survival rate), A549): 63.7%; viability at 10 µM ([13]; drug 10 μM, 72 hours, WST-1, OD450 nm, read-out: cell viability (survival rate), LoVo): 74.1%
O[C@@H]1CO[C@H]2[C@@H]1OC[C@@H]2O [Isosorbide] | 55.1% | 81.8% | – | – | – | – | – | – | – | – | – | – | – | viability at 10 µM ([1]; A-375, 72 h, read-out: cell viability (survival rate), A375, drug 10 μM, 72 hours, WST-1, OD450 nm): 53.5%; viability at 10 µM ([2]; 72 h, read-out: cell viability (survival rate), PC3, drug 10 μM, 72 hours, WST-1, OD450 nm): 94.3%; viability at 10 µM ([3]; HL-60, 72 h, read-out: cell viability (survival rate), HL-60, drug 10 μM, 72 hours, WST-1, OD450 nm): 125%; viability at 10 µM ([4]; NCI-H1650, 72 h, read-out: cell viability (survival rate), H1650, drug 10 μM, 72 hours, WST-1, OD450 nm): 73.3%; viability at 10 µM ([5]; MKN-45, 72 h, read-out: cell viability (survival rate), MKN-45, drug 10 μM, 72 hours, WST-1, OD450 nm): 93.1%; viability at 10 µM ([6]; 72 h, read-out: cell viability (survival rate), AGS, drug 10 μM, 72 hours, WST-1, OD450 nm): 69%; viability at 10 µM ([7]; MCF7, 72 h, read-out: cell viability (survival rate), MCF7, drug 10 μM, 72 hours, WST-1, OD450 nm): 78.6%; viability at 10 µM ([8]; 72 h, read-out: cell viability (survival rate), HeLa, drug 10 μM, 72 hours, WST-1, OD450 nm): 72.8%; viability at 10 µM ([9]; HepG2, 72 h, read-out: cell viability (survival rate), HepG2, drug 10 μM, 72 hours, WST-1, OD450 nm): 90.1%; viability at 10 µM ([10]; 72 h, read-out: cell viability (survival rate), TSGH, drug 10 μM, 72 hours, WST-1, OD450 nm): 77.5%; viability at 10 µM ([11]; A549, 72 h, read-out: cell viability (survival rate), A549, drug 10 μM, 72 hours, WST-1, OD450 nm): 60.7%
COC(=O)N/N=C/c1c[n+]([O-])c2ccccc2[n+]1[O-] [Carbadox] | 72.8% | 54.4% | 52.4% | 52.5% | 87% | 56.9% | 104% | 51.9% | 34.6% | 60% | 88.7% | 67.9% | 24.8% | –
CCc1oc2ccccc2c1C(=O)c1cc(Br)c(O)c(Br)c1 [Benzbromarone] | 128% | 105% | 99.2% | 80.9% | 85.5% | 75.3% | 86.2% | 80.1% | 52.8% | 104% | 103% | 99.9% | 51.5% | –
